Data reported in patent US20260015358A1, “BICYCLIC DERIVATIVES, COMPOSITIONS AND USES THEREOF” (Danatlas Pharmaceuticals Co., Ltd., priority 2023, published 2026).

Tests used:
[1] = target: T1, WRN [UniPro: Q14191 (WRN_HUMAN), N500-C946] (Homo sapiens (Human), UniProt Q14191); experiment: WRN ATPase assay (ADP-Glo); type: biochemical; settings: WRN enzymatic activity assay
[2] = target: T1, WRN [UniPro: Q14191 (WRN_HUMAN), N500-C946]; experiment: WRN unwinding assay (FORKF DNA, fluorescence); type: biochemical; settings: Table 14

T1 sequence (Q14191 500-946): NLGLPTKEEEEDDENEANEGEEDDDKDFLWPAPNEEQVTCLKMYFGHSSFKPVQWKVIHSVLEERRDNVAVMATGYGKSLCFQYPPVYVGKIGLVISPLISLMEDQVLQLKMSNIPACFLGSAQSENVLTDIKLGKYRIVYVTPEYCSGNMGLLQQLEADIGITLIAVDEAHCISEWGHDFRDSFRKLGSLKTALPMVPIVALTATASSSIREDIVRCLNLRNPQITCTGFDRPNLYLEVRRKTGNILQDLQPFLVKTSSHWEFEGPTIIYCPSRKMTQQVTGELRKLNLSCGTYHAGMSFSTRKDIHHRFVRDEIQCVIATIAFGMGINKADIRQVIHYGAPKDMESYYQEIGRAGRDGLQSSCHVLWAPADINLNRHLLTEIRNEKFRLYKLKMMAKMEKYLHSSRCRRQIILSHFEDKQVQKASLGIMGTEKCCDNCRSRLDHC

Compound | IC50 [1] [nM] | IC50 [2] [nM]
CCc1c(N2CCN(C(=O)c3ncc4nc(Cl)sc4c3O)CC2)c(=O)n2nc(C3=CCOCC3)nc2n1CC(=O)Nc1ccc(C(F)(F)F)cc1Cl [Example 196, N-(2-Chloro-4-(trifluoromethyl)phenyl)-2-(6-(4-(2-chloro-7-hydroxythiazolo[4,5-c]pyridine-6-carbonyl)piperazin-1-yl)-2-(3,6-dihydro-2H-pyran-4-yl)-5-ethyl-7-oxo-[1,2,4]triazolo[1,5-a]pyrimidin-4(7H)-yl)acetamide] | < 100 | < 100
CCc1c(N2CCN(C(=O)CNC(=O)N3CCCC3)CC2)c(=O)n2nc(C3=CCOCC3)nc2n1CC(=O)Nc1ccc(C(F)(F)F)cc1Cl [Example 166, N-(2-(4-(4-(2-((2-Chloro-4-(trifluoromethyl)phenyl)amino)-2-oxoethyl)-2-(3,6-dihydro-2H-pyran-4-yl)-5-ethyl-7-oxo-4,7-dihydro-[1,2,4]triazolo[1,5-a]pyrimidin-6-yl)piperazin-1-yl)-2-oxoethyl)pyrrolidine-1-carboxamide] | 100 to 1000 | < 100
CCc1c(N2CCN(C(=O)CNC(=O)c3ccns3)CC2)c(=O)n2nc(C3=CCOCC3)nc2n1CC(=O)Nc1ccc(C(F)(F)F)cc1Cl [Example 369, N-(2-(4-(4-(2-((2-Chloro-4-(trifluoromethyl)phenyl)amino)-2-oxoethyl)-2-(3,6-dihydro-2H-pyran-4-yl)-5-ethyl-7-oxo-4,7-dihydro-[1,2,4]triazolo[1,5-a]pyrimidin-6-yl)piperazin-1-yl)-2-oxoethyl) isothiazole-5-carboxamide] | < 100 | < 100
CCc1c(N2CCN(C(=O)CNC(=O)c3ccccc3Br)CC2)c(=O)n2nc(C3=CCOCC3)nc2n1CC(=O)Nc1ccc(C(F)(F)F)cc1Cl [Example 113, 2-Bromo-N-(2-(4-(4-(2-((2-chloro-4-(trifluoromethyl)phenyl)amino)-2-oxoethyl)-2-(3,6-dihydro-2H-pyran-4-yl)-5-ethyl-7-oxo-4,7-dihydro-[1,2,4]triazolo[1,5-a]pyrimidin-6-yl)piperazin-1-yl)-2-oxoethyl)benzamide] | < 100 | < 100
CCc1c(N2CCN(C(=O)CNC(=O)Nc3cc(F)ccc3F)CC2)c(=O)n2nc(C3=CCOCC3)nc2n1CC(=O)Nc1ccc(C(F)(F)F)cc1Cl [Example 186, N-(2-Chloro-4-(trifluoromethyl)phenyl)-2-(6-(4-(((2,5-difluorophenyl)carbamoyl)glycyl)piperazin-1-yl)-2-(3,6-dihydro-2H-pyran-4-yl)-5-ethyl-7-oxo-[1,2,4]triazolo[1,5-a]pyrimidin-4(7H)-yl)acetamide] | < 100 | < 100
CCc1c(N2CCN(C(=O)CNC(=O)c3ccccc3)CC2)c(=O)n2nc(N3CCOCC3)nc2n1CC(=O)Nc1ccc(C(F)(F)F)cc1Cl [Example 231, N-(2-(4-(4-(2-((2-Chloro-4-(trifluoromethyl)phenyl)amino)-2-oxoethyl)-5-ethyl-2-morpholino-7-oxo-4,7-dihydro-[1,2,4]triazolo[1,5-a]pyrimidin-6-yl)piperazin-1-yl)-2-oxoethyl)benzamide] | < 100 | < 100
CCc1c(N2CCN(C(=O)CNC(=O)CC3COC3)CC2)c(=O)n2nc(C3=CCOCC3)nc2n1CC(=O)Nc1ccc(C(F)(F)F)cc1Cl [Example 273, N-(2-Chloro-4-(trifluoromethyl)phenyl)-2-(2-(3,6-dihydro-2H-pyran-4-yl)-5-ethyl-6-(4-((2-(oxetan-3-yl)acetyl)glycyl)piperazin-1-yl)-7-oxo-[1,2,4]triazolo[1,5-a]pyrimidin-4(7H)-yl)acetamide] | 100 to 1000 | < 100
CCc1c(N2CCN(C(=O)CNC(=O)c3ccc(F)c(N(C)C)c3)CC2)c(=O)n2nc(C3=CCOCC3)nc2n1CC(=O)Nc1ccc(C(F)(F)F)cc1Cl [Example 286, N-(2-(4-(4-(2-((2-Chloro-4-(trifluoromethyl)phenyl)amino)-2-oxoethyl)-2-(3,6-dihydro-2H-pyran-4-yl)-5-ethyl-7-oxo-4,7-dihydro-[1,2,4]triazolo[1,5-a]pyrimidin-6-yl)piperazin-1-yl)-2-oxoethyl)-3-(dimethylamino)-4-fluorobenzamide] | < 100 | < 100
CCc1c(N2CCN(C(=O)CNC(=O)c3ccccc3F)CC2)c(=O)n2nc(C3=CCOCC3)nc2n1CC(=O)Nc1ccc(C(F)(F)F)cc1C [Example 147, N-(2-(4-(2-(3,6-Dihydro-2H-pyran-4-yl)-5-ethyl-4-(2-((2-methyl-4-(trifluoromethyl)phenyl)amino)-2-oxoethyl)-7-oxo-4,7-dihydro-[1,2,4]triazolo[1,5-a]pyrimidin-6-yl)piperazin-1-yl)-2-oxoethyl)-2-fluorobenzamide] | < 100 | < 100
CCc1c(N2CCN(C(=O)NS(=O)(=O)c3cnn(C)c3)CC2)c(=O)n2nc(C3=CCOCC3)nc2n1CC(=O)Nc1ccc(C(F)(F)F)cc1Cl [Example 14, 4-(4-(2-((2-Chloro-4-(trifluoromethyl)phenyl)amino)-2-oxoethyl)-2-(3,6-dihydro-2H-pyran-4-yl)-5-ethyl-7-oxo-4,7-dihydro-[1,2,4]triazolo[1,5-a]pyrimidin-6-yl)-N-((1-methyl-1H-pyrazol-4-yl)sulfonyl)piperazine-1-carboxamide] | < 100 | < 100
CCc1c(N2CCN(C(=O)CNC(=O)c3ccccc3F)CC2)c(=O)n2nc(C3=CCOCC3)nc2n1CC(=O)Nc1cc(C)cs1 [Example 154, N-(2-(4-(2-(3,6-Dihydro-2H-pyran-4-yl)-5-ethyl-4-(2-((4-methylthiophen-2-yl)amino)-2-oxoethyl)-7-oxo-4,7-dihydro-[1,2,4]triazolo[1,5-a]pyrimidin-6-yl)piperazin-1-yl)-2-oxoethyl)-2-fluorobenzamide] | < 100 | < 100
CCc1c(N2CCN(C(=O)C(=O)Nc3nc(C)cs3)CC2)c(=O)n2nc(C3=CCOCC3)nc2n1CC(=O)Nc1ccc(C(F)(F)F)cc1Cl [Example 347, 2-(4-(4-(2-((2-Chloro-4-(trifluoromethyl)phenyl)amino)-2-oxoethyl)-2-(3,6-dihydro-2H-pyran-4-yl)-5-ethyl-7-oxo-4,7-dihydro-[1,2,4]triazolo[1,5-a]pyrimidin-6-yl)piperazin-1-yl)-N-(4-methylthiazol-2-yl)-2-oxoacetamide] | < 100 | < 100
CCc1c(N2CCN(C(=O)CNC(=O)c3c[nH]cn3)CC2)c(=O)n2nc(C3=CCOCC3)nc2n1CC(=O)Nc1ccc(C(F)(F)F)cc1Cl [Example 121, N-(2-(4-(4-(2-((2-Chloro-4-(trifluoromethyl)phenyl)amino)-2-oxoethyl)-2-(3,6-dihydro-2H-pyran-4-yl)-5-ethyl-7-oxo-4,7-dihydro-[1,2,4]triazolo[1,5-a]pyrimidin-6-yl)piperazin-1-yl)-2-oxoethyl)-1H-imidazole-4-carboxamide] | < 100 | < 100
CCc1c(N2CCN(C(=O)c3cnc4ncsc4c3O)CC2)c(=O)n2nc(C3=CCOCC3)nc2n1CC(=O)Nc1ccc(C(F)(F)F)cc1Cl [Example 81, N-(2-Chloro-4-(trifluoromethyl)phenyl)-2-(2-(3,6-dihydro-2H-pyran-4-yl)-5-ethyl-6-(4-(7-hydroxythiazolo[4,5-b]pyridine-6-carbonyl)piperazin-1-yl)-7-oxo-[1,2,4]triazolo[1,5-a]pyrimidin-4(7H)-yl)acetamide] | < 100 | < 100
CCc1c(N2CCN(C(=O)C(=O)NOCc3ccccc3)CC2)c(=O)n2nc(C3=CCOCC3)nc2n1CC(=O)Nc1ccc(C(F)(F)F)cc1Cl [Example 337, N-(Benzyloxy)-2-(4-(4-(2-((2-chloro-4-(trifluoromethyl)phenyl)amino)-2-oxoethyl)-2-(3,6-dihydro-2H-pyran-4-yl)-5-ethyl-7-oxo-4,7-dihydro-[1,2,4]triazolo[1,5-a]pyrimidin-6-yl)piperazin-1-yl)-2-oxoacetamide] | < 100 | < 100
CCc1c(N2CCN(C(=O)CNC(=O)Nc3ccccc3F)CC2)c(=O)n2nc(C3=CCOCC3)nc2n1CC(=O)Nc1ccc(C(F)(F)F)cc1Cl [Example 180, N-(2-Chloro-4-(trifluoromethyl)phenyl)-2-(2-(3,6-dihydro-2H-pyran-4-yl)-5-ethyl-6-(4-(((2-fluorophenyl)carbamoyl)glycyl)piperazin-1-yl)-7-oxo-[1,2,4]triazolo[1,5-a]pyrimidin-4(7H)-yl)acetamide] | < 100 | < 100
CCc1c(N2CCN(C(=O)C(N)=O)CC2)c(=O)n2nc(C3=CCOCC3)nc2n1CC(=O)Nc1ccc(C(F)(F)F)cc1Cl [Example 89, 2-(6-(4-(2-Amino-2-oxoacetyl)piperazin-1-yl)-2-(3,6-dihydro-2H-pyran-4-yl)-5-ethyl-7-oxo-[1,2,4]triazolo[1,5-a]pyrimidin-4(7H)-yl)-N-(2-chloro-4-(trifluoromethyl)phenyl)acetamide] | < 100 | < 100
CCc1c(N2CCN(C(=O)c3[nH]c4ccncc4c3F)CC2)c(=O)n2nc(C3=CCOCC3)nc2n1CC(=O)Nc1ccc(C(F)(F)F)cc1Cl [Example 300, N-(2-Chloro-4-(trifluoromethyl)phenyl)-2-(2-(3,6-dihydro-2H-pyran-4-yl)-5-ethyl-6-(4-(3-fluoro-1H-pyrrolo[3,2-c]pyridine-2-carbonyl)piperazin-1-yl)-7-oxo-[1,2,4]triazolo[1,5-a]pyrimidin-4(7H)-yl)acetamide] | 100 to 1000 | 100 to 1000
CCc1c(N2CCN(C(=O)CNC(C)=O)CC2)c(=O)n2nc(C3=CCOCC3)nc2n1CC(=O)Nc1ccc(C(F)(F)F)cc1Cl [Example 168, 2-(6-(4-(Acetylglycyl)piperazin-1-yl)-2-(3,6-dihydro-2H-pyran-4-yl)-5-ethyl-7-oxo-[1,2,4]triazolo[1,5-a]pyrimidin-4(7H)-yl)-N-(2-chloro-4-(trifluoromethyl)phenyl)acetamide] | < 100 | < 100
